Experiment [1] deals with HER2-positive BT-474 cells. Put plainly: Cell viability assay (CellTiter Glo luminescence), inhibition of cell growth. The class given is cell-based. Conditions: 96 h incubation. As to the method:
(§1) The in vitro efficacy of the mAb-reagent 1 conjugates were determined by measuring the inhibitory effect on cell growth of HER-2 receptor over-expressing cancer cell lines.
(§2) Loss of tumour cell viability following treatment with cytotoxic drugs or ADCs in vitro can be measured by growing cell lines in the presence of increasing concentrations of drugs or ADCs and quantifying the loss of proliferation or metabolic activity using CellTiter Glo® Luminescence reagent (Promega Corp. Technical Bulletin TB288; Lewis Phillips G. D, Cancer Res 2008; 68:9280-9290). The protocol describes cell seeding, drug treatment and determination of the cell viability in reference to untreated cells based on ATP synthesis, which is directly related to the number of cells present in the well.
(§3) HER2-positive SK-BR-3 and BT-474 cells were trypsinised with 3 mL Trypsin EDTA for 5-15 min. Trypsinisation was stopped by adding 10 mL complete medium, and cells were transferred to a 50 mL Falcon tube. Cells were counted using a Neubauer haemocytometer and adjusted to a cell density of 1×10^5/mL for BT-474 and 5×10^4/mL for SK-BR-3 respectively. Cells were seeded (100 μL/well) into poly-D-lysine coated opaque-walled 96-well plates and incubated for 24 h at 37° C. and 5% CO2. Tumour cell lines SK-BR-3 (ATCC-HTB-30) and BT-474 (ATCC-HTB-20) were purchased from the American Type Culture Collection. SK-BR-3 cells were grown in McCoy's 5A medium (Life Technologies®), 10% fetal bovine serum, 100 u/mL Penicillin and 100 μg/mL Streptomycin. BT-474 cells were grown in DMEM/F-12 medium (Life Technologies®), 10% fetal bovine serum, 100 u/mL Penicillin and 100 μg/mL Streptomycin. […]
(§4) The cell viability assay was carried out using the Cell-Titer Glo® Luminescence reagent, as described by the manufacturer's instructions, (Promega Corp. Technical Bulletin TB288; Lewis Phillips G. D, Cancer Res 2008; 68:9280-9290). […] Luminescence was recorded using a plate reader (e.g. MD Spectramax M3 plate reader), and data subsequently analysed using a four parameter non-linear regression model.
(§5) The results are shown in FIG. 6, which illustrates cell viability responses to treatment with either antibody-reagent 1 conjugate within SKBR-3 or BT-474 cells. Viability is expressed as % of untreated cells. […]
(§6) The in vitro efficacy of the reagent 6 and reagent 9 antibody conjugates prepared in Example 12 were determined by measuring the inhibitory effect on cell growth of HER-2 receptor over-expressing cancer cell lines by the method of Example 9.
(§7) The results are shown in FIG. 7, which illustrates cell viability responses to treatment with either reagent 6 conjugate or reagent 9 conjugate within SKBR-3 or BT-474 cells. Viability is expressed as % of untreated cells. […]

The test system of experiment [2] is HER2-positive SK-BR-3 cells. The experiment is described as above. Particulars: 96 h incubation. The experiment is classed as cell-based. How it is done:
as §1, §2, §3, §4, §5, §6, §7

Our source for the IC50 values is US20220062436A1, “DRUG-PROTEIN CONJUGATES” (priority 2012, published 2022).

As a reminder, the IC50 is the concentration that inhibits the measured activity by half. Higher therefore signals weaker potency.

Square brackets hold non-standard residues; d marks the D form. Peptide text beside a SMILES is read from it. * marks the point of attachment. Dolaproine = CO[C@@H]([C@@H]1CCCN1)[C@@H](C)C(=O)O; Dil = CC[C@H](C)[C@H](NC)[C@@H](CC(=O)O)OC; X1 = C[C@@H](N*)[C@@H](O)c1ccccc1; NMeV = CN[C@H](C(=O)O)C(C)C

For the compound `CC[C@H](C)[C@@H]([C@@H](CC(=O)N1CCC[C@H]1[C@H](OC)[C@@H](C)C(=O)N[C@H](C)[C@@H](O)c1ccccc1)OC)N(C)C(=O)[C@@H](NC(=O)[C@@H](NC)C(C)C)C(C)C` [MMAE, monomethyl auristatin E] (H-[NMeV]V[Dil][Dolaproine]-X1), the IC50 in experiment [1] (Example 9, Table 5) is 0.75 nM; in experiment [1] (Example 13, Table 7), 0.85 nM; in experiment [2] (Example 9, Table 5) it was 0.2 nM; in experiment [2] (Example 13, Table 7) it was 0.27 nM.
